CC50 and EC50 data for one molecule are collected here from patent publication US8003659B2, “Macrocyclic serine protease inhibitors” (Indenix Pharmaceuticals, Inc., priority 2008, dated 2011).

Data set [1] in a line: Cytotoxicity evaluation (Cell Titer 96 AQueous One Solution Cell Proliferation Assay). Format: cell-based. The note with it: human; GS4.1 cells, cellular viability. Here is the method: For cytotoxicity evaluation, GS4.1 cells were treated with compounds as described above and cellular viability was monitored using the Cell Titer 96 AQueous One Solution Cell Proliferation Assay (Promega). CC50 values were determined from the % cytotoxicity versus concentration data with Tecan Magellan software as described above.

The next data set relates to genotype 1b replicon. Briefly: Antiviral activity in a genotype 1b replicon assay. The note with it: Hepatitis C virus; genotype 1b replicon assay as described in Example 32; read-out: EC50. Format: cell-based, HCV. How it is done: General procedure: Huh-7 cells containing HCV Con1 subgenomic replicon (GS4.1 cells) were grown in Dulbecco's Modified Eagle Medium (DMEM) supplemented with 10% fetal bovine serum (FBS), 2 mM L-glutamine, 110 mg/L sodium pyruvate, 1× non-essential amino acids, 100 U/mL penicillin-streptomycin, and 0.5 mg/mL G418 (Invitrogen). For dose-response testing, the cells were seeded in 96-well plates at 7.5×10^3 cells/well in a volume of 50 μL, and incubated at 37° C./5% CO2. Three hours after plating, 50 μL of ten 2-fold serial dilutions of compounds (highest concentration, 75 μM) were added, and cell cultures were incubated at 37° C./5% CO2 in the presence of 0.5% DMSO. Alternatively, compounds were tested at a single concentration of 15 μM. In all cases, Huh-7 cells lacking the HCV replicon served as negative control. The cells were incubated in the presence of compounds for 72 hr after which they were monitored for expression of the NS4A protein by enzyme-linked immunosorbent assay (ELISA). For this, the plates were then fixed for 1 min with acetone/methanol (1:1, v/v), washed twice with phosphate-buffered saline (PBS), 0.1% Tween 20, blocked for 1 hr at room temperature with TNE buffer containing 10% FBS and then incubated for 2 hr at 37° C. with the anti-NS4A mouse monoclonal antibody A-236 (ViroGen) diluted in the same buffer. After washing three times with PBS, 0.1% Tween 20, the cells were incubated 1 hr at 37° C. with anti-mouse immunoglobulin G-peroxidase conjugate in TNE, 10% FBS. After washing as described above, the reaction was developed with O-phenylenediamine (Zymed). The reaction was stopped after 30 min with 2 NH2SO4, and absorbance was read at 492 nm using Sunrise Tecan spectrophotometer. EC50 values were determined from the % inhibition versus concentration data using a sigmoidal non-linear regression analysis based on four parameters with Tecan Magellan software. When screening at a single concentration, the results were expressed as % inhibition at 15 μM.
Compounds were tested in a genotype 1b replicon assay as described in Example 32 and the results are summarized in Table 6, wherein A represents a value smaller than 1 μM, and B represents a value between 1 μM to 10 μM, C represents a value between 10 μM to 75 μM and D represents a value greater than 75 μM.

The subject of data set [2] is HCV genotype 2a infectious virus. Briefly: HCV genotype 2a infectious virus assay. In kind it is cell-based, HCV (strain JFH-1; genotype 2a). The note with it: Hepatitis C virus. How it is done: Compounds were tested in a HCV genotype 2a infectious virus assay and the results are summarized in Table 7, wherein A represents a value smaller than 1 μM, and B represents a value between 1 μM to 10 μM, C represents a value between 10 μM to 75 μM and D represents a value greater than 75 μM.
The HCV in vitro infection core ELISA assay measures the ability of a test compound to inhibit replication of an infectious HCV (strain JFH-1; genotype 2a) in cell culture. […] We have developed this model for determining the efficacy of antiviral compounds against an infectious virus in vitro using HCV producing cells (HPC), a proprietary Huh-7-derived cell sublineage capable of propagating the JFH-1 HCV virus. The readout of the assay is quantification of HCV core protein by ELISA 5 days post infection with JFH-1 virus and treatment with a test compound.
Ninety-six-well Corning Costar plates were seeded with HPC cells at a density of 3.0×10^3 cells per well in 50 μL of Huh-7 media. Compound stock solutions were made up freshly in Huh-7 media (DMEM (containing glucose, L-glutamine and sodium pyruvate), 10% FBS, 100 IU/mL penicillin, 100 μg/mL streptomycin, 2 mM GlutaMAX, 1% MEM non-essential amino acids) as 2× stock. Seven additional 3-fold drug dilutions were prepared from the 2× stocks in Huh-7 media. At least 4 hours after HPC cells were seeded, the media in the 96-well culture plates was aspirated and 50 μL of each drug dilution and 50 μL of JFH-1 HCV was added to each well.
At 16 hrs post treatment and infection, the virus inoculum was removed by aspiration. The cultures were treated at the same final concentrations of drug diluted to 1× in Huh-7 media to a final volume of 200 μL. Cells were incubated in the presence of drug for 4 additional days at 37° C./5% CO2.
Media was removed from the plates by aspiration. Cells were fixed with 250 μL 1:1 acetone:methanol for 90 seconds, washed once in PBS and then three times with 1×KPL wash solution. The assay plates were then blocked with 150 μL/well 10% FBS-TNE (50 mM Tris-HCl (pH 7.5; Sigma), 100 mM NaCl, 1 mM EDTA with 10% FBS) for 1 hr at room temperature. Cells were washed three times with 1×KPL wash solution and incubated with 100 μL/well anti-hepatitis C core mAb (1 mg/mL stock diluted 1:500 in 10% FBS-TNE) for 2 hours at 37° C. Cells were washed three times with 1×KPL wash solution and incubated with 100 μL/well HRP-goat anti-mouse antibody (diluted 1:2,500 in 10% FBS-TNE) for 1 hr at 37° C.
OPD solution was prepared using 1 OPD tablet+12 mL citrate/phosphate buffer (16 mM citric acid, 27 mM Na2HPO4) plus 5 μL 30% H2O2 per plate. Cells were washed three times with 1×KPL wash solution and developed with 100 μL/well OPD solution for 30 minutes in the dark at room temperature. The reaction was stopped with 100 μL/well of 2NH2SO4, and absorbance measured at A490 nm in a Victor^3 V 1420 multilabel counter (Perkin Elmer). The EC50 values for each compound were calculated from dose response curves from the resulting best-fit equations determined by Microsoft Excel and XLfit 4.1 software. The negative control for inhibition of virus replication was untreated HPC cells infected with the JFH-1 HCV virus strain. The negative ELISA control was untreated, uninfected HPC cells. The positive ELISA control was untreated HPC cells infected the JFH-1 HCV virus strain.

For the molecule `COc1ccc2c(O[C@H]3C[C@H]4C(=O)N(C)CCCC/C=C\[C@@H]5C[C@@]5(C(=O)NS(=O)(=O)C5CC5)NC(=O)N4C3)cc(-c3nc(C(C)C)cs3)nc2c1Cl` [Compound 62d, (Z)-(4R,6S,15S,17S)-[17-[8-chloro-7-methoxy-2-(4-isopropylthiazol-2-yl)quinolin-4-yloxy]-13-N-methyl-2,14-dioxo-1,3,13-triazatricyclo[13.3.0.0]octadec-7-en-4-yl]carbonyl(cyclopropyl)sulfonamide], the CC50 in data set [1] is over 75 µM. In addition, the EC50 (with genotype 1b replicon; in data set [2]) was under 1 µM each time.
